# Experimental data reported in ChEMBL document CHEMBL3137356, “MMV Box Cryptosporidium parvum screening set”.
# System: Cryptosporidium parvum
# Assay: MMV: Cryptosporidium parvum oocysts (Iowa Strain) were prepared for use by treatment with 10 mM HCl (37 degrees C, 10 min) followed by 2 mM sodium taurocholate in phosphate-buffered saline (PBS) with Ca2+ and Mg2+ (16 degrees C, 10 min) in order to stimulate excystation. The high-throughput screen was carried out by inoculating >90% confluent human ileocecal adenocarcinoma (HCT-8) cells (ATCC) with ~5.5 x 10^3 primed oocysts per well. Experimental compounds or DMSO (vehicle) were added three hours after infection, and cells were incubated for 48 hours.
# Type: functional
row,SMILES,Inhibition
1,O=C(Nc1ccc(Cl)c(Cl)c1)Nc1ccc(Cl)c(Cl)c1,79.74%
2,COc1ccc(Nc2nc(N/N=C/c3ccc(O)cc3)nc(Nc3ccc([N+](=O)[O-])cc3)n2)cc1,-49.8%
3,N=c1n(CCN2CCCCC2)c2ccccc2n1CC(=O)c1ccc(Cl)c(Cl)c1,-71.18%
4,COc1ccc(-c2nc(N3CCN(C(=O)C4CCCCC4)CC3)c3c4c(sc3n2)CCCC4)cc1,-3.496%
5,Cc1sc(NC(=O)c2ccco2)c(C(c2cccnc2)N2CCC(Cc3ccccc3)CC2)c1C (stereo not given),-7.724%
6,COc1cc(C(=O)Nc2nc3c(cc4c5c(cccc53)CC4)s2)cc(OC)c1OC,-26.05%
7,COc1ccc(CCN2C(=O)c3[nH]nc(-c4cc(Cl)c(C)cc4O)c3C2c2ccccc2F)cc1 (stereo not given),10.68%
8,O=C(NNc1cc(N2CCCC2)nc(N2CCCC2)n1)c1ccccc1,-52.02%
9,COC(=O)c1ccc(Cl)c2c1C1C=CCC1C(c1cccc3ccccc13)N2 (stereo not given),-26.02%
10,O=C(CCc1ccccc1)c1ccccc1OCC(O)CN1CCCCC1 (stereo not given),-4.075%
11,OC1=C2C(=Nc3ccccc3SC2c2ccccc2)c2ccccc21 (stereo not given),-46.02%
12,COc1cc(C(=O)Nc2ccc(-c3nc4ccccc4[nH]3)cc2)cc(OC)c1OC,41.18%
13,CCOc1ccc(N2C(N)=NC(N)=NC2(C)C)cc1.Cl,-26.74%
14,COC(=O)c1ccc(C2C3=C(O)CC(c4ccc(F)cc4)CC3=Nc3ccccc3N2C(=O)c2ccccc2)cc1 (stereo not given),-18.81%
15,O=C(CCl)NCCOc1ccc(Cl)cc1Cl,7.535%
16,CCOc1ccc(CN2CCN(CC(O)COc3ccc(OCC(O)CN4CCN(Cc5ccc(OCC)cc5)CC4)cc3)CC2)cc1 (stereo not given),1.883%
17,CCCCNc1nc(NC(C)(C)C)nc(NC(C)(C)C)n1,20.51%
18,COc1ccc(CCn2c(=N)c(C(=O)NCc3cccnc3)cc3c(=O)n4cccc(C)c4nc32)cc1,0.9407%
19,CC(=O)c1sc(NC(=O)Nc2ccc(C)cc2C)nc1C,-18.27%
20,Cn1c(C(=O)c2cccc3ccccc23)nc2ccccc21,-17.7%
21,COc1ccc(Nc2cc(C)nc(NCc3ccccc3)n2)cc1,-1.126%
22,Oc1ccc2ccccc2c1CNc1nc2ccccc2[nH]1,-48.76%
23,O=C(Nc1ccc(-c2nc3ccccc3[nH]2)cc1)c1ccc(Cl)c(Cl)c1,10.57%

row,SMILES,Inhibition
1,O=C1c2ccc3c4c(ccc(c24)C(=O)N1CCCCO)C(=O)N(CCCCO)C3=O,79.86%
2,OCCNc1nc(Nc2ccc(Cl)c(Cl)c2)nc2ccccc12,12.96%
3,Nc1ccc(-c2nc3cc(Oc4ccc(Oc5ccc6[nH]c(-c7ccc(N)cc7)nc6c5)cc4)ccc3[nH]2)cc1,-48.18%
4,Cc1cc(N(C)C)nc(Nc2ccc(NC(=O)Nc3ccccc3)cc2)n1,-29.16%
5,COc1ccc(C(=O)C(CCC(CNC(C)(C)C)C(=O)c2ccc(OC)cc2)CNC(C)(C)C)cc1 (stereo not given),-20.25%
6,COc1cc(C(=O)ON=C(N)Cc2cccc3ccccc23)cc(OC)c1OC,26.07%
7,Oc1c(C(Nc2ccccn2)c2cccc(Oc3ccccc3)c2)ccc2cccnc12 (stereo not given),73.93%
8,COc1cc(-c2nc(-c3ccccc3)c(-c3ccccc3)[nH]2)cc(OC)c1O,-1.324%
9,Cc1ccc(Nc2nc(N)c3ccccc3n2)cc1Cl,40.42%
10,OC(CNC1CCCCC1)Cn1c2ccc(I)cc2c2cc(I)ccc21 (stereo not given),25.2%
11,CCc1ccc(CNCC(O)c2ccccc2)cc1.Cl (stereo not given),-7.138%
12,Br.CCn1c2c(c(=N)c3c1CCC3)CCCC2,9.729%
13,COc1cc(CNCCc2ccc(Cl)cc2)cc(OC)c1O,5.38%
14,Cc1ccc2c(C)nc(Nc3nc(C)cc(-c4ccccc4)n3)nc2c1,-62.95%
15,CCOc1ccc(Nc2ccnc3cc(Cl)ccc23)cc1,-43.83%
16,Oc1ccc(Br)cc1CN1CCN(Cc2ccc(Cl)cc2)CC1,-16.25%
17,Br.Cc1ccc(C)c(-c2csc(Nc3ccc(C)c(C)c3)n2)c1,-25.23%
18,CCCn1c(=N)c(C(=O)NC2CCCCC2)cc2c(=O)n3cccc(C)c3nc21,-27.29%
19,CC(C)(C)c1ccc(C2CC3=Nc4ccccc4N(C(=O)c4ccccc4Cl)C(c4ccc(F)cc4)C3=C(O)C2)cc1 (stereo not given),20.41%
20,Nc1ccn([C@@H]2O[C@H](CO)[C@@H](O)[C@H]2O)c(=O)n1 [CYTIDINE],73.84%
21,O=C(Nc1cccc(C2=NCCN2)c1)Nc1cccc(C2=NCCN2)c1 [IMIDOCARB],9.453%
22,CN(C)c1ccc(C(O)(c2ccc(N(C)C)cc2)c2ccc(N(C)C)cc2)cc1 [METHYLROSANILINE],77.77%
